Experimental data published in the Kinase Knowledgebase extract (Sharma et al. 2016).

Legend:
Assay in all cases: Enzyme Assay
PIK3CD (Human) = PIK3CD (Human) (UniProt O00329)
PIK3CB (Human) = PIK3CB (Human) (UniProt P42338)
PIK3CG (human) = PIK3CG (human) (UniProt P48736)
PIK3CA (human) = PIK3CA (human) (UniProt P42336)
PIK3CA (human), sequence (P42336 whole entry, looked up): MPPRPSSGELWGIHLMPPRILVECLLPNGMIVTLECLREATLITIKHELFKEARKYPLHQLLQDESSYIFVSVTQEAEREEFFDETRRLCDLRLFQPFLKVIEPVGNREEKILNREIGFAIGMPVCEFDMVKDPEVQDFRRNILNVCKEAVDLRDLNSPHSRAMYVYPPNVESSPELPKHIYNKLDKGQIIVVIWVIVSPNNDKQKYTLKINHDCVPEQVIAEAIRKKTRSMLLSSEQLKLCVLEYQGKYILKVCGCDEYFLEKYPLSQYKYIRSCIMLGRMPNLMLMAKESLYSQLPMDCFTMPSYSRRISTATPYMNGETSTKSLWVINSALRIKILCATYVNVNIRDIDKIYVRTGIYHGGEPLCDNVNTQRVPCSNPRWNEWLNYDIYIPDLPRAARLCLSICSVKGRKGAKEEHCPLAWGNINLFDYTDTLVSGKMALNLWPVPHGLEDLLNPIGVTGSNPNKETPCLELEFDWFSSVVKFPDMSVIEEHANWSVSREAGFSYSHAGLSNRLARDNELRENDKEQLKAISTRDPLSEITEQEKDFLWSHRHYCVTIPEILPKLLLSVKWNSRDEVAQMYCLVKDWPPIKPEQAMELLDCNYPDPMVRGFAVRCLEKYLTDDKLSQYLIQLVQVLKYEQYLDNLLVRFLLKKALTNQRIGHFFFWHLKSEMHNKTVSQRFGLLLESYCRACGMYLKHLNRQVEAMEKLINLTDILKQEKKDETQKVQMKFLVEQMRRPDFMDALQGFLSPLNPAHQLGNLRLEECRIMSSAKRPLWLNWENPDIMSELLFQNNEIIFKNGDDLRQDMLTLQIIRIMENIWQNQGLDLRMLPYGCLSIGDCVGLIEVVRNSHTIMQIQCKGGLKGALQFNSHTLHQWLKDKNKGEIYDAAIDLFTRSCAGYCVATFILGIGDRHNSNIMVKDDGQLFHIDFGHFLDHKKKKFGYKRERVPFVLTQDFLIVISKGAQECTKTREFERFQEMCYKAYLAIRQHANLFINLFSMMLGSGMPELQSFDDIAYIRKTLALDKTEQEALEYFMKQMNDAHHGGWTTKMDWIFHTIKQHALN

PIK3CD (Human), sequence (O00329 whole entry, looked up): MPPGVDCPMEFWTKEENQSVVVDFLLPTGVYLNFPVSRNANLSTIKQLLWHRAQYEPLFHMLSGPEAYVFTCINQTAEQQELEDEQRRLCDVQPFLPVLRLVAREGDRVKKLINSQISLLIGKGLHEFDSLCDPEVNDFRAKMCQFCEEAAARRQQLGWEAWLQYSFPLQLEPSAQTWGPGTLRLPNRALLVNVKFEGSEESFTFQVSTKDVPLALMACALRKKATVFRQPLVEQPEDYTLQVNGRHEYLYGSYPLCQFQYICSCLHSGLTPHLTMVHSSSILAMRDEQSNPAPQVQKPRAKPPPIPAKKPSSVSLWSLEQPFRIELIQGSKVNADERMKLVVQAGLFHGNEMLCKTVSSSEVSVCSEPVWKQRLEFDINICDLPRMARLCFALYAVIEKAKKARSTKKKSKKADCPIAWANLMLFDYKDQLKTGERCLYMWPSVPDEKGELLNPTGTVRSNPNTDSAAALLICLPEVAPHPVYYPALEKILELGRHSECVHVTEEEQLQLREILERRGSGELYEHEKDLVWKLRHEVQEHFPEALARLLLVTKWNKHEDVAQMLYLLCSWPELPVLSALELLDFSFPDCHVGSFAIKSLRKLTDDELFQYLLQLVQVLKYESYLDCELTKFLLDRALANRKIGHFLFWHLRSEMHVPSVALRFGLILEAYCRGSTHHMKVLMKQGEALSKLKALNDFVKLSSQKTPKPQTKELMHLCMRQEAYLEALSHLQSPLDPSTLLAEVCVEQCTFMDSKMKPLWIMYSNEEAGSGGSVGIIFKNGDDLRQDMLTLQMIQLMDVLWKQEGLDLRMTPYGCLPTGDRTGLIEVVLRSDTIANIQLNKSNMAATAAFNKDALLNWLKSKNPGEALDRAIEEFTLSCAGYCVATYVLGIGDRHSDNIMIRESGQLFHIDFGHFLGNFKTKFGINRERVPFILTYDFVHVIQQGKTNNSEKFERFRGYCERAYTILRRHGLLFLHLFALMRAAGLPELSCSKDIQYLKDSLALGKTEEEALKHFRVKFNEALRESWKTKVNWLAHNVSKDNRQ
PIK3CB (Human), sequence (P42338 whole entry, looked up): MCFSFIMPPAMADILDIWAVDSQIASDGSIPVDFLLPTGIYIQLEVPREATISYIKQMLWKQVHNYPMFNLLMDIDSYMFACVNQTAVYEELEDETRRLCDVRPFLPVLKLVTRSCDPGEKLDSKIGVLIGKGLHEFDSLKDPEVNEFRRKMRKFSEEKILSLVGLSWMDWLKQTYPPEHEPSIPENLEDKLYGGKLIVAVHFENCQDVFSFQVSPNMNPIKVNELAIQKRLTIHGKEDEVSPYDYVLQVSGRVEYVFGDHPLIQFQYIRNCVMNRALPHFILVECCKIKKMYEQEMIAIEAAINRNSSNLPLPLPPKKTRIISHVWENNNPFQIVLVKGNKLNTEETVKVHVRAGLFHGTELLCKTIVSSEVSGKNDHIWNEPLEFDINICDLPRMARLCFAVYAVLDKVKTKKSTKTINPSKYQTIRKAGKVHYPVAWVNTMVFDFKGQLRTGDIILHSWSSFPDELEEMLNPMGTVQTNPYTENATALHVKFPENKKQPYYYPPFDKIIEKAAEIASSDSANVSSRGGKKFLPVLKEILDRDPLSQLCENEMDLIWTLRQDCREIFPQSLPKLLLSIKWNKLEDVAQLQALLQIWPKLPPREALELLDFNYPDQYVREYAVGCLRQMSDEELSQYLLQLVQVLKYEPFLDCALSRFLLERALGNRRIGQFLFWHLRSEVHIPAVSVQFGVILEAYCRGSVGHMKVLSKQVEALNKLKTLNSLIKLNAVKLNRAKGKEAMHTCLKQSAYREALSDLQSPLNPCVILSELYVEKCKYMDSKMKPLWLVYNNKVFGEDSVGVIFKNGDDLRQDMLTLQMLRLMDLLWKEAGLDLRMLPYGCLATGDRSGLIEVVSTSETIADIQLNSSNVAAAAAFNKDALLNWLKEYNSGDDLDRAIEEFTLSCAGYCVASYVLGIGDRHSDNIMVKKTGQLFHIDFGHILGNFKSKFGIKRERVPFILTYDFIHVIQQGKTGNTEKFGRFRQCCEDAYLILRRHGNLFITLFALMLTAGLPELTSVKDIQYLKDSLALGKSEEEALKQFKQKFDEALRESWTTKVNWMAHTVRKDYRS
PIK3CG (human), sequence (P48736 whole entry, looked up): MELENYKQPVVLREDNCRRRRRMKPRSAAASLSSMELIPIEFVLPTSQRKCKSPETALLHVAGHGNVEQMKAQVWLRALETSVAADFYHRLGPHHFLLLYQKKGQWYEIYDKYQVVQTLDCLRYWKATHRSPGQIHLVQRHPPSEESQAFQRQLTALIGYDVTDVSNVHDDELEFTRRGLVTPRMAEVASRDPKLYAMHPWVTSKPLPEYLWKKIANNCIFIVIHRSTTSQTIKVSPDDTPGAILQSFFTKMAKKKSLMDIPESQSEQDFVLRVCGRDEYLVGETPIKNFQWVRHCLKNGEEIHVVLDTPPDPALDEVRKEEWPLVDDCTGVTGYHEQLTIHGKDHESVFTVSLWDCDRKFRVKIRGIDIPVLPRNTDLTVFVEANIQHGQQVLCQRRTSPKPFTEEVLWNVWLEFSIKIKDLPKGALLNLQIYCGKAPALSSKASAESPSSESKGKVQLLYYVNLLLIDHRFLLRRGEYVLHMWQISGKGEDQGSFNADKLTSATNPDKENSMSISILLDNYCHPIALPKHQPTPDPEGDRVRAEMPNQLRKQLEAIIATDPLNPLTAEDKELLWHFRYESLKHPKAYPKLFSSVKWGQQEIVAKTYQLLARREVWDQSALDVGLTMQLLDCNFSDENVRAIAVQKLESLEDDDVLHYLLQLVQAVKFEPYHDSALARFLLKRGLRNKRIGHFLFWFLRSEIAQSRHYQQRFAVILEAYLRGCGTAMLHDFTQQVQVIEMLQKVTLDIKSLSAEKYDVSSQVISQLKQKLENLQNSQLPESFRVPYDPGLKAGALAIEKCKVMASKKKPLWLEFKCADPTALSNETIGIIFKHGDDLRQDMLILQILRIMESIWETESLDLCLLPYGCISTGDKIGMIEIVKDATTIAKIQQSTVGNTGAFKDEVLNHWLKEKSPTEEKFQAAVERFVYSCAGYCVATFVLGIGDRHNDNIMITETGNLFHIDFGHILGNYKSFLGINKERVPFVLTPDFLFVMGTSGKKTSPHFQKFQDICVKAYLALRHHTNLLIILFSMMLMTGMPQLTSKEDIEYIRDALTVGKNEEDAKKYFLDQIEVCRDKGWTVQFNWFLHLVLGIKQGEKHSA

CCC(C)[C@H](N)C(=O)N1CCN(c2nc(N3CCOCC3)nc(-n3c(C(F)F)nc4ccccc43)n2)CC1 (some centres not stated)
IC50 (PIK3CD (Human)): 1 µM
IC50 (PIK3CB (Human)): 0.067 µM
IC50 (PIK3CG (human)): > 10 µM

N[C@@H](Cc1ccccc1)C(=O)N1CCN(c2nc(N3CCOCC3)nc(-n3c(C(F)F)nc4ccccc43)n2)CC1
IC50 (PIK3CG (human)): > 100 µM

NCCCC(=O)N1CCN(c2nc(N3CCOCC3)nc(-n3c(C(F)F)nc4ccccc43)n2)CC1
IC50 (PIK3CD (Human)): 0.077 µM
IC50 (PIK3CB (Human)): 0.081 µM
IC50 (PIK3CA (human)): 0.85 µM
IC50 (PIK3CG (human)): 7.5 µM

Cc1cc(C(C)Nc2ccccc2)c2nc(N3CCOCC3)cc(=O)n2c1 (configuration not stated)
IC50 (PIK3CD (Human)): 0.376 µM
IC50 (PIK3CA (human)): 5.07 µM

O=C(C[C@H]1CCCN1)N1CCN(c2nc(-c3cccc(O)c3)nc(N3CCOCC3)n2)CC1
IC50 (PIK3CD (Human)): 0.026 µM
IC50 (PIK3CB (Human)): 1.6 µM
IC50 (PIK3CA (human)): 4.4 µM
IC50 (PIK3CG (human)): 5.5 µM

N[C@H](Cc1ccccc1)C(=O)N1CCN(c2nc(N3CCOCC3)nc(-n3c(C(F)F)nc4ccccc43)n2)CC1
IC50 (PIK3CB (Human)): 78 µM
IC50 (PIK3CG (human)): 58 µM

N[C@H](CC(=O)N1CCN(c2nc(N3CCOCC3)nc(-n3c(C(F)F)nc4ccccc43)n2)CC1)Cc1ccccc1
IC50 (PIK3CD (Human)): 2.8 µM
IC50 (PIK3CB (Human)): 7.1 µM
IC50 (PIK3CA (human)): 26 µM
IC50 (PIK3CG (human)): > 100 µM

C[C@H](N)CC(=O)N1CCN(c2nc(N3CCOCC3)nc(-n3c(C(F)F)nc4ccccc43)n2)CC1
IC50 (PIK3CD (Human)): 0.11 µM
IC50 (PIK3CB (Human)): 1.3 µM
IC50 (PIK3CA (human)): 3 µM
IC50 (PIK3CG (human)): 7.5 µM

CSCC[C@H](N)C(=O)N1CCN(c2nc(N3CCOCC3)nc(-n3c(C(F)F)nc4ccccc43)n2)CC1
IC50 (PIK3CD (Human)): 2.95 µM
IC50 (PIK3CB (Human)): 0.483 µM
IC50 (PIK3CA (human)): 13 µM

CC(C)C[C@H](N)CC(=O)N1CCN(c2nc(-c3cccc(O)c3)nc(N3CCOCC3)n2)CC1
IC50 (PIK3CD (Human)): 9.1 µM
IC50 (PIK3CB (Human)): 19 µM
IC50 (PIK3CA (human)): 21 µM
IC50 (PIK3CG (human)): > 100 µM

N[C@@H](Cc1ccccc1)C(=O)N1CCN(c2nc(-c3cccc(O)c3)nc(N3CCOCC3)n2)CC1
IC50 (PIK3CD (Human)): 8.9 µM
IC50 (PIK3CB (Human)): 0.19 µM
IC50 (PIK3CA (human)): 19 µM
IC50 (PIK3CG (human)): > 100 µM

C[C@@H](N)CC(=O)N1CCN(c2nc(-c3cccc(O)c3)nc(N3CCOCC3)n2)CC1
IC50 (PIK3CD (Human)): 1.3 µM
IC50 (PIK3CB (Human)): 1.7 µM
IC50 (PIK3CA (human)): 2.2 µM
IC50 (PIK3CG (human)): 16 µM

N[C@H](CC(=O)N1CCN(c2nc(-c3cccc(O)c3)nc(N3CCOCC3)n2)CC1)Cc1ccccc1
IC50 (PIK3CD (Human)): 17 µM
IC50 (PIK3CB (Human)): 1.8 µM
IC50 (PIK3CA (human)): 62 µM
IC50 (PIK3CG (human)): > 100 µM

O=C(C1CCNCC1)N1CCN(c2nc(-c3cccc(O)c3)nc(N3CCOCC3)n2)CC1
IC50 (PIK3CD (Human)): 0.33 µM
IC50 (PIK3CB (Human)): 3.2 µM
IC50 (PIK3CA (human)): 1.5 µM
IC50 (PIK3CG (human)): 6.5 µM
